Experimental data published in ChEMBL document CHEMBL4715913, “Discovery of benzo[f]pyrido[4,3-b][1,4]oxazepin-10-one derivatives as orally available bromodomain and extra-terminal domain (BET) inhibitors with efficacy in an in vivo psoriatic animal model” (Bioorg Med Chem, 2021).
Active and inactive are the calls of the source. The calls are words filed in the database; no cut-off is given here.

Tests used:
[1] = test system: PBMC; experiment: Inhibition of MCP-1 production in LPS-induced human PBMC preincubated for 1 hr followed by LPS-stimulation and measured after 20 hrs by magnetic beads technique based assay; type: functional, tissue-based; conditions: time 21.0 hrs
[2] = molecular target: CREB-binding protein (Homo sapiens, UniProt Q92793); experiment: Binding affinity to human partial length CREBBP (R1081 to G1197 residues) expressed in bacterial expression system by BROMOscan method
[3] = test system: PBMC; experiment: Inhibition of IL-6 production in LPS-induced human PBMC preincubated for 1 hr followed by LPS-stimulation and measured after 20 hrs by magnetic beads technique based assay; type: functional, tissue-based; conditions: time 21.0 hrs
[4] = molecular target: T1, Bromodomain testis-specific protein (Homo sapiens, UniProt Q58F21); experiment: Binding affinity to human partial length BRDT-BD2 (K250 to E382 residues) expressed in bacterial expression system by BROMOscan method
[5] = molecular target: T1, Bromodomain testis-specific protein; experiment: Binding affinity to human partial length BRDT-BD1 (N21 to E137 residues) expressed in bacterial expression system by BROMOscan method
[6] = molecular target: T2, Bromodomain-containing protein 4 (Homo sapiens, UniProt O60885); experiment: Inhibition of BRD4 in human PBMC assessed as reduction in LPS-induced TNFalpha secretion preincubated for 1 hr followed by LPS-stimulation and measured after 20 hrs by magnetic beads technique based assay
[7] = molecular target: T3, Mitogen-activated protein kinase 7 (Homo sapiens, UniProt Q13164); experiment: Inhibition of recombinant human ERK5 using myelin basic protein as substrate by [gamm33P]ATP based HotSpot radiometric assay
[8] = molecular target: T2, Bromodomain-containing protein 4; experiment: Inhibition of BRD4-BD1 (unknown origin) by TR-FRET assay
[9] = Stability of compound in human liver microsomes assessed as parent compound remaining after 1 hr
[10] = molecular target: T4, Voltage-gated inwardly rectifying potassium channel KCNH2 (Homo sapiens, UniProt Q12809); experiment: Inhibition of human ERG stably expressed in CHO cells at holding potential of -80 mV incubated for 12 mins
[11] = molecular target: T4, Voltage-gated inwardly rectifying potassium channel KCNH2; experiment: Inhibition of human ERG
[12] = molecular target: T2, Bromodomain-containing protein 4; experiment: Inhibition of BRD4-BD1 (unknown origin)
[13] = Dissociation constant, pKa of compound; type: physicochemical
[14] = molecular target: T2, Bromodomain-containing protein 4; experiment: Binding affinity to BRD4-BD1 (unknown origin)
[15] = molecular target: T3, Mitogen-activated protein kinase 7; experiment: Inhibition of ERK5 (unknown origin)

T4 sequence (Q12809 whole entry): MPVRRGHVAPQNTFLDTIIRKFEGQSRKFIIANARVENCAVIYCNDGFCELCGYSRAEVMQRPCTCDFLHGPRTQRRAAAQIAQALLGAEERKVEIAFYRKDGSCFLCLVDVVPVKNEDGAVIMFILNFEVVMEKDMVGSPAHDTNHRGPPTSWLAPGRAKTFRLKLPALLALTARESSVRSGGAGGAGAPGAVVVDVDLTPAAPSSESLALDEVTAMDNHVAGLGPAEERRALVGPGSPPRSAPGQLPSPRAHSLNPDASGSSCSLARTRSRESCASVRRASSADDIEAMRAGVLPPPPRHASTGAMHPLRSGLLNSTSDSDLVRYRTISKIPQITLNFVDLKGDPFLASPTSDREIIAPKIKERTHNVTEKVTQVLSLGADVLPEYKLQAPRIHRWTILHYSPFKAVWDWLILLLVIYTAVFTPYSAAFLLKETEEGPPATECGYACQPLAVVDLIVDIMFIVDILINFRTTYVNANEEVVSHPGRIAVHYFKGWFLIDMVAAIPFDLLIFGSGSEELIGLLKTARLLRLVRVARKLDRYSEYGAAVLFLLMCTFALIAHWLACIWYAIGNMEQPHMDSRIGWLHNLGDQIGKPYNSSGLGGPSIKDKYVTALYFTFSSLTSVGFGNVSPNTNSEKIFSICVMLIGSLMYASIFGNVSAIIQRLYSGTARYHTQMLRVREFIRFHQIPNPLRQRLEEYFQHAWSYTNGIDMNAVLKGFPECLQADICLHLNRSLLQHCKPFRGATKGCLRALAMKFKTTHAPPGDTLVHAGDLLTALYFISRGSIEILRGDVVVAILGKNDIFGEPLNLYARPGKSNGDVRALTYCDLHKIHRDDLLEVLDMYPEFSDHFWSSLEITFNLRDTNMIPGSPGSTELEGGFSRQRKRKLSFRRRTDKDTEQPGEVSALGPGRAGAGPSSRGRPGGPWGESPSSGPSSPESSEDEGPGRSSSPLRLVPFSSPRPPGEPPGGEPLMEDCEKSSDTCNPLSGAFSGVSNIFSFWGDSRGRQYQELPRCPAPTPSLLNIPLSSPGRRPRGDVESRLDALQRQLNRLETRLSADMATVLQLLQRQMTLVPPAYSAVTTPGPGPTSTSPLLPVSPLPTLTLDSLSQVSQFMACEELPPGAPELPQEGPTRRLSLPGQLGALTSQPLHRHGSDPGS
T3 sequence (Q13164 whole entry): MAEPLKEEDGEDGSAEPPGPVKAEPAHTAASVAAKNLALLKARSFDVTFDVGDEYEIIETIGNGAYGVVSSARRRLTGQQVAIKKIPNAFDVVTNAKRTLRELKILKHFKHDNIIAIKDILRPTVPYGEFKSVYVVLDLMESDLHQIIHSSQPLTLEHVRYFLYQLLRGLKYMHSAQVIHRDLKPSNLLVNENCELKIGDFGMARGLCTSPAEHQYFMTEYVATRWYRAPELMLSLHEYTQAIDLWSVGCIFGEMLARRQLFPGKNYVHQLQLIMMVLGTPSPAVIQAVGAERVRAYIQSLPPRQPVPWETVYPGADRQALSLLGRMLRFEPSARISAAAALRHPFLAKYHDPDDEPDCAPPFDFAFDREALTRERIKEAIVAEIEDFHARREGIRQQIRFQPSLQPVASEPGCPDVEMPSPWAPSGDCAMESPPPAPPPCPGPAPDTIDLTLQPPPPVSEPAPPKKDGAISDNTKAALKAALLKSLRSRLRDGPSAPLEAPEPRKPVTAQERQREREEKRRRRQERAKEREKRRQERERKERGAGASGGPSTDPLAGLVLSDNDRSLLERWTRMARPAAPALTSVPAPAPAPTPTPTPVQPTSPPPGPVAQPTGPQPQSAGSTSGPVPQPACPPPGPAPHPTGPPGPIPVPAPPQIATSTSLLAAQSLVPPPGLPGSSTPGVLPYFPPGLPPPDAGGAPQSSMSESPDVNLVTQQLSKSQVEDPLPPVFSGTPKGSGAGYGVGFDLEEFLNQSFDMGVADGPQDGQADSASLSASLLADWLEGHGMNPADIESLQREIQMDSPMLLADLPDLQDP
Chain of CREB-binding protein (Q92793 whole entry, the tested form may be a part): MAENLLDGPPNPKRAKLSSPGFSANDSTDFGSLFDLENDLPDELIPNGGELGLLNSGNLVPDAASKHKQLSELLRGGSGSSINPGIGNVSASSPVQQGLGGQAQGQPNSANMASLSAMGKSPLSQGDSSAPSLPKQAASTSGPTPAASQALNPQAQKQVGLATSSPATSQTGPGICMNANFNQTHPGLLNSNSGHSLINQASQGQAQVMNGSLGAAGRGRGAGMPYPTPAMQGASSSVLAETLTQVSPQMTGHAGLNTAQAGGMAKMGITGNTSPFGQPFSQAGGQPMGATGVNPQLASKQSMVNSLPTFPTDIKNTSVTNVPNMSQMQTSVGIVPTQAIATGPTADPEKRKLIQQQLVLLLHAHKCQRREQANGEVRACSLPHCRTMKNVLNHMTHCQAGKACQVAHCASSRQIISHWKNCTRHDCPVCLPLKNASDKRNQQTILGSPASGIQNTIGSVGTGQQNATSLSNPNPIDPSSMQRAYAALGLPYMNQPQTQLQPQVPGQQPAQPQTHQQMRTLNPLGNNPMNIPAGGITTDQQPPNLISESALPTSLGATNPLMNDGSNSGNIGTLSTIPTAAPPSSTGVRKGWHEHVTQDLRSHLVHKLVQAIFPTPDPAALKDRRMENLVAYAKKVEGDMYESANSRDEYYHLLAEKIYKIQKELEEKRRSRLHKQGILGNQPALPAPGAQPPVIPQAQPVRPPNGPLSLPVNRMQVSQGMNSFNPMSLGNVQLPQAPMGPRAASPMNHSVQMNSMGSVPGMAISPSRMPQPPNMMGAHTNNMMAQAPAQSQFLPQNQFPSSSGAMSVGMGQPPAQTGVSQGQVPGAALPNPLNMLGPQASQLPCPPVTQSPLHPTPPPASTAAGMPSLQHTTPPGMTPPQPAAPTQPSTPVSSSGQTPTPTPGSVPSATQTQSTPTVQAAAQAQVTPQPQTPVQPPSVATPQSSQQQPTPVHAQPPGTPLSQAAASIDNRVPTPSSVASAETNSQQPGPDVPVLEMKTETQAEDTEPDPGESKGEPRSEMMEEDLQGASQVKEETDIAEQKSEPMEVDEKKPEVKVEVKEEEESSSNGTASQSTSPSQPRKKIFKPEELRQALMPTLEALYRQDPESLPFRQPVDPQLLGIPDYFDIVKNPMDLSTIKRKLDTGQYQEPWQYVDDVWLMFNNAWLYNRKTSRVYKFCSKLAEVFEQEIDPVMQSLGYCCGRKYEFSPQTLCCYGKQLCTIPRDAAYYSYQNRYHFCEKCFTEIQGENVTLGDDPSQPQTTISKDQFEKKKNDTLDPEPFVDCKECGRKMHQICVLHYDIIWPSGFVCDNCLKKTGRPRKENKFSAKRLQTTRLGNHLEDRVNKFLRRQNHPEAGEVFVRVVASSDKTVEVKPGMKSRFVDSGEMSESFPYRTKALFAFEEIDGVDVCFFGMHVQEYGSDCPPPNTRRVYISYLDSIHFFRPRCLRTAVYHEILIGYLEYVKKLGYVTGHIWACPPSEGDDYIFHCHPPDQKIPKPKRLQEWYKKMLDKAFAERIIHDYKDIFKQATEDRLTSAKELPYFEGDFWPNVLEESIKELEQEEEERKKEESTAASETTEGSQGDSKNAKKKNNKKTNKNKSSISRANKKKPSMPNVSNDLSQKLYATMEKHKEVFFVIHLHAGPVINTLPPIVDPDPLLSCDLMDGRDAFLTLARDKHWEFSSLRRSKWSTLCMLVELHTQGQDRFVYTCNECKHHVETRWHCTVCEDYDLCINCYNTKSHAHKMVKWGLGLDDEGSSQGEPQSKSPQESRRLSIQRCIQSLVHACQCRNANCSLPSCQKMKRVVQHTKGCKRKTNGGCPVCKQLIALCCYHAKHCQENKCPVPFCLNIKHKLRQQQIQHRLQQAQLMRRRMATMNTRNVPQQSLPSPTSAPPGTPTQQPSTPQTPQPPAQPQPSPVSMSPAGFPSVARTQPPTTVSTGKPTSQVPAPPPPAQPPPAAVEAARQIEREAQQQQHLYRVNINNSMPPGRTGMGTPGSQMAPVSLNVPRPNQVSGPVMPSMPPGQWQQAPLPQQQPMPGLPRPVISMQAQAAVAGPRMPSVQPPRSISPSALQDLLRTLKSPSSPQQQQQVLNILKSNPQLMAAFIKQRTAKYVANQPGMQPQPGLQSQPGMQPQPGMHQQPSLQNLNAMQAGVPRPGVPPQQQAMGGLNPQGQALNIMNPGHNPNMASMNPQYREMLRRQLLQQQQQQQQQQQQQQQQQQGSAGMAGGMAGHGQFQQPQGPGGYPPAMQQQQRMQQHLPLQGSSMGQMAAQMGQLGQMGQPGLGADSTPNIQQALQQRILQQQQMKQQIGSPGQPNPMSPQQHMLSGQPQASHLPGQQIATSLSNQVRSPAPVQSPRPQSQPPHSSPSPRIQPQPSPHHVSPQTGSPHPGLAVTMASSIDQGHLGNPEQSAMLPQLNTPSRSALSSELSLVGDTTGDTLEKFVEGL

For `CCNC(=O)C[C@@H]1N=C(c2ccc(Cl)cc2)c2cc(OC)ccc2-n2c(C)nnc21` [MOLIBRESIB], the inhibition [1] was “Active”, the Kd [2] was 83000 nM and the inhibition [3] was “Active”. The Kd [4] was 60 nM and the Kd [5] was 112 nM.
For `CN1C(=O)c2ccccc2N(C)c2cc(N[C@H]3CC[C@@H](O)CC3)ncc21`, the inhibition [1] was “Active”, the EC50 [6] was 3070 nM and the inhibition [3] was “Active”. The IC50 [7] was 2230 nM and the IC50 [8] was 6910 nM.
For `CN1C(=O)c2cccc(F)c2Oc2cc(N[C@H]3CC[C@H](O)CC3)ncc21`, the inhibition [1] was “Active”, the EC50 [6] was 1720 nM and the inhibition [3] was “Active”. For the same compound, the remaining at 1 h [9] was 114%, the IC50 [10] was over 10000 nM and the IC50 [7] was 393 nM. The IC50 [8] was 11200 nM.
In the case of `CCO[C@H]1CC[C@H](Nc2cc3c(cn2)N(C)C(=O)c2ccccc2N3C)CC1`, the inhibition [1] is reported as “Active”, the EC50 [6] is reported as 2740 nM and the inhibition [3] is reported as “Active”. For the same compound, the IC50 [7] was 81 nM and the IC50 [8] was 9990 nM.
In the case of `CN1C(=O)c2ccccc2Oc2cc(N[C@H]3CC[C@H](O)CC3)ncc21`, the inhibition [1] is reported as “Active”, the EC50 [6] is reported as 2700 nM and the inhibition [3] is reported as “Active”. For the same compound, the remaining at 1 h [9] was 97%, the IC50 [10] was over 10000 nM and the IC50 [7] was 266 nM. For the same compound, the IC50 [8] was 9370 nM.
With `CCO[C@@H]1CCCC[C@@H]1Nc1cc2c(cn1)N(C)C(=O)c1ccccc1N2C` (relative stereo) the inhibition [1] was “Active”, the EC50 [6] was 2950 nM and the inhibition [3] was “Active”. The IC50 [7] was over 10000 nM and the IC50 [8] was 15400 nM.
For `CN1C(=O)c2c(F)ccc(F)c2Oc2cc(N[C@H]3CC[C@H](O)CC3)ncc21`, the inhibition [1] was “Active”, the EC50 [6] was 430 nM and the inhibition [3] was “Active”. The remaining at 1 h [9] was 90%, the IC50 [10] was over 10000 nM and the IC50 [7] was 213 nM. The IC50 [8] was 2010 nM.
For `CCOc1cc(C(=O)N2CCC(N3CCCC3)CC2)ccc1Nc1cc2c(cn1)N(C)C(=O)c1ccccc1N2C`, the IC50 [11] was 320 nM, the inhibition [1] was “Active” and the inhibition [3] was “Active”. The IC50 [12] was 1290 nM, the pKa [13] was 9.7 and the Kd [14] was 22 nM. It also gave an IC50 [15] of 11 nM.
